Where “and” joins values, the source holds several entries; their conditions need not be identical. Equal entries are not always repeated. Where a SMILES comes first, the peptide text is derived from it. The star is where a group is joined. Cbz = O=C(OCc1ccccc1)*
Key:
Test in all cases: cells
HCC1599 = type: functional, cell-based, Homo sapiens;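 also: growth inhibition of HCC1599 cells, read out in a cell viability assay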
Description: SANGER: Inhibition of human HCC1599 cell growth in a cell viability assay.

Kasumi 1 = type: functional, cell-based, Homo sapiens;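 also: growth inhibition of human Kasumi-1 cells, read out by a cell viability assay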
Description: SANGER: Inhibition of human KASUMI-1 cell growth in a cell viability assay.

LB373-MEL-D = type: functional, cell-based, Homo sapiens;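 also: growth inhibition of the cell line, read out in a cell viability assay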
Description: SANGER: Inhibition of human LB373-MEL-D cell growth in a cell viability assay.

LOUCY = type: functional, cell-based, Homo sapiens;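 also: growth inhibition of human LOUCY cells, read out with a cell viability assay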
Description: SANGER: Inhibition of human LOUCY cell growth in a cell viability assay.

LP-1 = type: functional, cell-based, Homo sapiens;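 also: growth inhibition of human LP-1 cells, with the read-out taken from a cell viability assay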
Description: SANGER: Inhibition of human LP-1 cell growth in a cell viability assay.

LU-165 = type: functional, cell-based, Homo sapiens
Description: SANGER: Inhibition of human LU-165 cell growth in a cell viability assay.

MC-CAR = type: functional, cell-based, Homo sapiens;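 also: growth inhibition of the human MC-CAR cell line, read out by a cell viability assay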
Description: SANGER: Inhibition of human MC-CAR cell growth in a cell viability assay.

NALM-6 = type: functional, cell-based, Homo sapiens;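 also: growth inhibition of NALM-6 cells, read out with a cell viability assay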
Description: SANGER: Inhibition of human NALM-6 cell growth in a cell viability assay.

NCI-H1522 = type: functional, cell-based, Homo sapiens;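 also: growth inhibition of NCI-H1522 cells, read out with a cell viability assay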
Description: SANGER: Inhibition of human NCI-H1522 cell growth in a cell viability assay.

NCI-H187 = type: functional, cell-based, Homo sapiens;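 also: growth inhibition of NCI-H187 cells, read out as cell viability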
Description: SANGER: Inhibition of human NCI-H187 cell growth in a cell viability assay.

RPMI-6666 = type: functional, cell-based, Homo sapiens
Description: SANGER: Inhibition of human RPMI-6666 cell growth in a cell viability assay.

SUP-T1 = type: functional, cell-based, Homo sapiens;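 also: growth inhibition of human SUP-T1 cells, read out as cell viability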
Description: SANGER: Inhibition of human SUP-T1 cell growth in a cell viability assay.

BC-3 = type: functional, cell-based, Homo sapiens;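 also: cell viability assay measuring growth inhibition of human BC-3 cells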
Description: SANGER: Inhibition of human BC-3 cell growth in a cell viability assay.

BL-41 = type: functional, cell-based; conditions: Homo sapiens;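 also: growth inhibition of human BL-41 cells, read out with a cell viability assay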
Description: SANGER: Inhibition of human BL-41 cell growth in a cell viability assay.

CA46 = type: functional, cell-based, Homo sapiens;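 also: growth inhibition of human CA46 cells, read out by a cell viability assay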
Description: SANGER: Inhibition of human CA46 cell growth in a cell viability assay.

U-698-M = type: functional, cell-based, Homo sapiens
Description: SANGER: Inhibition of human U-698-M cell growth in a cell viability assay.

Structure (SMILES)	IC50 (HCC1599; Homo sapiens, HCC1599) [µM]	IC50 (Kasumi 1; Homo sapiens, Kasumi 1) [µM]	IC50 (LB373-MEL-D; Homo sapiens, LB373-MEL-D) [µM]	IC50 (LOUCY; Homo sapiens, LOUCY) [µM]	IC50 (LP-1; Homo sapiens, LP-1) [µM]	IC50 (LU-165; Homo sapiens, LU-165) [µM]	IC50 (MC-CAR; Homo sapiens, MC-CAR) [µM]	IC50 (NALM-6; Homo sapiens, NALM-6) [µM]	IC50 (NCI-H1522; Homo sapiens, NCI-H1522) [µM]	IC50 (NCI-H187; Homo sapiens, NCI-H187) [µM]	IC50 (RPMI-6666; Homo sapiens, RPMI-6666) [µM]	IC50 (SUP-T1; Homo sapiens, SUP-T1) [µM]	IC50 (BC-3; Homo sapiens, BC-3) [µM]	IC50 (BL-41) [µM]	IC50 (CA46; Homo sapiens, CA46) [µM]	IC50 (U-698-M; Homo sapiens, U-698-M) [µM]	other results
C=CC(=O)N1CCCC(Nc2nc(Nc3ccc(N(C)C(=O)CC)cc3)nc3[nH]cnc23)C1 (configuration not stated)	> 10.2	> 10.2	> 10.2	> 10.2	> 10.2	> 10.2	> 10.2	> 10.2	> 10.2	> 10.2	> 10.2	> 10.2	9.06	> 10.2	> 10.2	> 10.2	–
COc1ccc(N(C(=O)Oc2c(C)cccc2C)c2ccnc(Nc3ccc(N4CCN(C)CC4)cc3)n2)c(OC)c1	> 5.12	> 5.12	> 5.12	> 5.12	> 5.12	> 5.12	> 5.12	> 5.12	> 5.12	> 5.12	> 5.12	> 5.12	> 5.12	1	> 5.12	> 5.12	–
Cc1cc(N2CCOCC2)cc2[nH]c(-c3c(NC[C@@H](O)c4cccc(Cl)c4)cc[nH]c3=O)nc12	> 5.12	> 5.12	> 5.12	> 5.12	> 5.12	> 5.12	> 5.12	2.97	> 5.12	2.34	3.45	> 5.12	4.34	> 5.12	> 5.12	> 5.12	–
NC(=O)c1cccc(-c2cc(Nc3ccc(OC(F)(F)F)cc3)ncn2)c1	> 1.28	> 1.28	> 1.28	> 1.28	> 1.28	> 1.28	> 1.28	> 1.28	> 1.28	> 1.28	> 1.28	> 1.28	> 1.28	> 1.28	> 1.28	> 1.28	–
CC(C)C[C@H](NC(=O)[C@H](Cc1ccccc1)NC(=O)c1cnccn1)B(O)O [BORTEZOMIB]	0.0119	> 0.02	0.0007	0.000293	> 0.02	> 0.02	> 0.02	0.00449	> 0.02	> 0.02	> 0.02	> 0.02	0.00661	0.00125	> 0.02	> 0.02	–
C[C@@H](Oc1cc(-c2cnn(C3CCNCC3)c2)cnc1N)c1c(Cl)ccc(F)c1Cl [CRIZOTINIB]	> 2	> 2	> 2	> 2	> 2	> 2	> 2	> 2	> 2	> 2	> 2	> 2	> 2	> 2	> 2	> 2	–
Nc1ccccc1NC(=O)c1ccc(CNC(=O)OCc2cccnc2)cc1 [ENTINOSTAT]	0.516	> 5	2.27	0.634	1.3	0.618	> 5	0.649	2.22	0.492	0.411	> 5	0.783	0.569	> 5	> 5	–
CC(C)C[C@@H](C=O)NC(=O)[C@H](CC(C)C)NC(=O)[C@H](CC(C)C)NC(=O)OCc1ccccc1 [MG-132] (Cbz-Leu-Leu-Leu-aldehyde)	–	> 1	–	–	–	–	–	> 1	–	–	–	> 1	> 1	–	> 1	–	IC50 (HCC1599; hcc1599): > 1 µM; IC50 (Kasumi 1; kasumi 1): > 1 µM; IC50 (LB373-MEL-D; lb373-mel-d): 0.242 µM and > 1 µM; IC50 (LOUCY; loucy): 0.255 µM and > 1 µM; IC50 (LP-1; lp-1): > 1 µM; IC50 (LU-165; lu-165): > 1 µM; IC50 (MC-CAR; mc-car): > 1 µM; IC50 (NALM-6; nalm-6): > 1 µM; IC50 (NCI-H1522; nci-h1522): > 1 µM; IC50 (NCI-H187; nci-h187): > 1 µM; IC50 (RPMI-6666; rpmi-6666): > 1 µM; IC50 (SUP-T1; sup-t1): > 1 µM; IC50 (BC-3; bc-3): > 1 µM; IC50 (CA46; ca46): > 1 µM; IC50 (U-698-M; u-698-m): > 1 µM

From ChEMBL document CHEMBL1201861, “Genomics of Drug Sensitity in Cancer screening data, Wellcome Trust Sanger Institute”
